The values below come from ChEMBL document CHEMBL1124762, “Potential antitumor agents. 60. Relationships between structure and in vivo colon 38 activity for 5-substituted 9-oxoxanthene-4-acetic acids” (1990).

What all share (format): functional, Mus musculus
Assay [1] has as its system MC-38. The assay can be described thus: Optimal dose 24 hr after intraperitoneal administration against C38 colon tumor cells in mice.
The test system of assay [2] is MC-38. The assay can be described thus: Percent necrosis activity against subcutaneous C38 colon tumor cells in vivo. More on the design: concentration or dose not given beside the values.
Assay [3] deals with MC-38. The experiment in a line: Percent necrosis activity against subcutaneous C38 colon tumor cells in vivo; range is 50-90%.

As to `CCOc1cccc2c(=O)c3cccc(CC(=O)O)c3oc12`, in the assay with MC-38 [1], the OD worked out at 330 mg/kg. Also, the Activity in the assay with MC-38 [2] was more than 90%.
The compound `O=C(O)Cc1cccc2c(=O)c3cccc(F)c3oc12` showed an OD in the assay with MC-38 [1] of 330 mg/kg.
For the compound `CCc1cccc2c(=O)c3cccc(CC(=O)O)c3oc12`, in the assay on MC-38 [1], the OD is 100 mg/kg. This compound had an Activity in the assay with MC-38 [2] of more than 90%.
The compound `O=C(O)Cc1cccc2c(=O)c3cccc(CC(=O)O)c3oc12` yielded an OD in the assay on MC-38 [1] of 330 mg/kg.
In the assay with MC-38 [1], `COc1cccc2c(=O)c3cccc(CC(=O)O)c3oc12` returned an OD of 150 mg/kg. This compound returned an Activity in the assay with MC-38 [3] of 90%.
Take `O=C(O)Cc1cccc2c(=O)c3cccc(Cl)c3oc12`: in the assay with MC-38 [1], the OD was determined as 150 mg/kg. In the assay on MC-38 [2], the Activity was more than 90%.
Compound `O=C(O)Cc1cccc2c(=O)c3cccc(C(F)(F)F)c3oc12` had an OD in the assay with MC-38 [1] of 220 mg/kg. Besides, in the assay on MC-38 [3], the Activity was 90%.
For `CCCOc1cccc2c(=O)c3cccc(CC(=O)O)c3oc12`, in that order: 150 mg/kg and 90%.
In turn, `O=C(O)Cc1cccc2c(=O)c3cccc(O)c3oc12` registered an OD in the assay with MC-38 [1] of 330 mg/kg.
Compound `Nc1cccc2c(=O)c3cccc(CC(=O)O)c3oc12` returned an OD in the assay with MC-38 [1] of 1125 mg/kg. In addition, the Activity in the assay with MC-38 [3] worked out at 90%.
Turning to `CC(=O)Nc1cccc2c(=O)c3cccc(CC(=O)O)c3oc12`, in the assay with MC-38 [1], the OD stood at 330 mg/kg.
For the compound `O=C(O)Cc1cccc2c(=O)c3ccccc3oc12`, the OD with MC-38 [1] was found to be 220 mg/kg. In the assay with MC-38 [2], this compound yielded an Activity of more than 90%.
For `O=C(O)Cc1cccc2c(=O)c3cccc([N+](=O)[O-])c3oc12`, in the assay on MC-38 [1], the OD was 330 mg/kg. Besides, the Activity with MC-38 [3] is listed as 90%.
Take `Cc1cccc2c(=O)c3cccc(CC(=O)O)c3oc12`: in the assay with MC-38 [1], the OD was determined as 45 mg/kg. Also, the Activity with MC-38 [2] is listed as more than 90%.
In the case of `O=C(O)Cc1cccc2c(=O)c3cccnc3oc12`, in the assay on MC-38 [1], the OD was 750 mg/kg.
On the same count and under the same terms, the value for `O=C(O)Cc1cccc2c(=O)c3cccc(-c4ccccc4)c3oc12` was 750 mg/kg.
`CCCCOc1cccc2c(=O)c3cccc(CC(=O)O)c3oc12` had an OD in the assay with MC-38 [1] of 220 mg/kg. Besides, the Activity in the assay on MC-38 [3] is given as 90%.
In the case of `O=C(O)Cc1cccc2c(=O)c3cccc(Br)c3oc12`, the OD in the assay on MC-38 [1] is 100 mg/kg.
